Assay results from BindingDB's records for patent US20250145589 (Sichuan Huiyu Pharmaceutical, 2025).

Columns and labels:
[1] = molecular target: Phosphatidylinositol 4,5-bisphosphate 3-kinase catalytic subunit alpha isoform (Homo sapiens, UniProt P42336); assay: Inhibition of PI3Kalpha Efficacy assay
Procedure: (§1) The ADP-Glo™ kinase assay was used to assess the inhibition of PI3Kα with our compounds. The utilized proteins and assay reagents were obtained from the ADP-Glo™ Kinase Assay Kit (Promega). Initially, a 2 mM stock solution of the test compound (dissolved in DMSO) was serially diluted in five-fold concentrations using DMSO to obtain eight working solutions 1 (200′). Subsequently, each of the eight working solutions 1 was further diluted in a 20-fold gradient by adding 5 μL into 95 μL of ddH2O, resulting in eight working solutions 2 (10×). In a 384-well white flat-bottom plate, 2 μL of 2.5×PI3Kα kinase solution and 1 μL of working solution 2 (10×) were added to each well and mixed, followed by a 15-minute incubation at room temperature (RT). Subsequently, 2 μL of 2.5×PI and ATP solution mixture were added to each well, mixed, and incubated at RT for 60 minutes. Then, 5 μL of ADP-Glo (containing 10 mM MgCl2) reagent was added to each well, mixed, and incubated at RT for 40 minutes.Finally, 10 μL of the Kinase Detection Reagent was added to each well, mixed, and incubated at RT for 40 minutes. Luminescence values were recorded using a multi-mode microplate reader with luminescence channel settings, and the inhibitory rate was calculated using the following formula:%Inhibitionrate=[(Negative-testcompound)/(Negative-Blank)]*100Data were analyzed using GraphPad Prism with log(inhibitor) vs. response—Variable Slope(four parameters) fitting calculations for IC5 values.

[2] = molecular target: Son of sevenless homolog 1/GTPase KRas [G12C] (Homo sapiens, UniProt P01116, G12C); assay: HTRF KRASG12C/SOS1 Binding Assay
Son of sevenless homolog 1/GTPase KRas [G12C], sequence (P01116 whole entry G12C): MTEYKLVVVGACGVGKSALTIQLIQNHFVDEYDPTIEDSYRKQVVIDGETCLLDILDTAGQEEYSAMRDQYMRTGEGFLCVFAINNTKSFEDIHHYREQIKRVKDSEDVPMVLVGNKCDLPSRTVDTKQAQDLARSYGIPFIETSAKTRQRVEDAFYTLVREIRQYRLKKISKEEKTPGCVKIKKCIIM
Son of sevenless homolog 1/GTPase KRas [G12C], sequence (Q07889 whole entry, further chain): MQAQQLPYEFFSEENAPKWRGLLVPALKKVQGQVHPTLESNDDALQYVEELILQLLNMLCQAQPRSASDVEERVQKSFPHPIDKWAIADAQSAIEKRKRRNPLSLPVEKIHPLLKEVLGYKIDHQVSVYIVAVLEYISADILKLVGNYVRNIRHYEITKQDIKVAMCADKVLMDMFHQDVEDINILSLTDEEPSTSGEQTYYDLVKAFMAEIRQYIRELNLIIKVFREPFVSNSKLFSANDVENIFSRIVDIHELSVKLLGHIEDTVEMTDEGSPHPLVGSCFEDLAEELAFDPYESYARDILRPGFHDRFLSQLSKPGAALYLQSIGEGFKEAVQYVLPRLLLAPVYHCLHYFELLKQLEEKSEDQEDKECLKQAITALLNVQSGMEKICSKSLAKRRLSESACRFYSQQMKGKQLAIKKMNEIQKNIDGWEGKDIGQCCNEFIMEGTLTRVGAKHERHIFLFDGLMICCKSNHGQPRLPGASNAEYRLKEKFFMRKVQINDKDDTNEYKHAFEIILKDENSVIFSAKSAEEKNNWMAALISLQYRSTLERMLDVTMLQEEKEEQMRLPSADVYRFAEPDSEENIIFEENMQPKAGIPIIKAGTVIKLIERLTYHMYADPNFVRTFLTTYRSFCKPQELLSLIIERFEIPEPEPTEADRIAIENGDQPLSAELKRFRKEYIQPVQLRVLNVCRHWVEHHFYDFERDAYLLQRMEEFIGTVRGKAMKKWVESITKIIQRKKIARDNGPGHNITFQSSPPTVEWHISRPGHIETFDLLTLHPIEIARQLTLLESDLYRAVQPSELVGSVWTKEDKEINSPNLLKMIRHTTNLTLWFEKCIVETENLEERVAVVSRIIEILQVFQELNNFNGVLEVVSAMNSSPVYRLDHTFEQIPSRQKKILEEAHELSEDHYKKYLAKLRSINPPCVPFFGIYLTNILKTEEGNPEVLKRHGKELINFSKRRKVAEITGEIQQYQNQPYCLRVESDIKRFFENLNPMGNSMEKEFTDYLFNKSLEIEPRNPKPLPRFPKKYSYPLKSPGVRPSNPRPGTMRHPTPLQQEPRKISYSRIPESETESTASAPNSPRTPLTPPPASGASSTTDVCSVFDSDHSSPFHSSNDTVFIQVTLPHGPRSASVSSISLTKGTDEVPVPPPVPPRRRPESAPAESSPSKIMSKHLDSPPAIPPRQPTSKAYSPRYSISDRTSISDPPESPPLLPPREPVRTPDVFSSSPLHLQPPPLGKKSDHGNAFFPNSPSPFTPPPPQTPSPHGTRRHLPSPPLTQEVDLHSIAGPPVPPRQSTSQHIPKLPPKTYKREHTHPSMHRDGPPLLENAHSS
Procedure: The HTRF KRASG12C/SOS1 Binding Assay was used to measure the interaction between KRASG12C and SOS1 proteins, and evaluate the enzymatic activity of compounds against KRASG12C. The utilized proteins and assay reagents were obtained from the KRASG12C-SOS1 binding assay kits (Cisbio). Initially, a 2 mM stock solution of the test compound (dissolved in DMSO) was serially diluted in five-fold concentrations using DMSO to obtain eight working solutions 1 (200×). Subsequently, each of the eight working solutions 1 was further diluted in a 20-fold gradient by adding 5 μL into 95 μL of Diluent buffer, mixed completely with vortex mixer, resulting in eight working solutions 2 (10×). In a 384-well white flat-bottom plate, 4 μL of Tag2-KRASG12C solution, 2 μL of working solution 2 (10×) and 4 μL of Tag1-SOS1 solution were sequentially added to each well and mixed, followed by a 15-minute incubation at room temperature (RT). Subsequently, 5 μL of Anti-tag 1-Tb3+ stock solution and 5 μL of Anti-tag2-XL665 were added to each well, mixed, and incubated at 4° C. for 3 hours. […] The inhibition rate was calculated using the following formula:%Inhibitionrate= [(Rationegative-Ratiocompound)/(Rationegative-RatioBlank)]×100Data were analyzed using GraphPad Prism with log (inhibitor) vs. response-Variable Slope (four parameters) fitting calculations for IC50 values.

[3] = molecular target: T1, Phosphatidylinositol 4,5-bisphosphate 3-kinase catalytic subunit delta isoform (Homo sapiens, UniProt O00329); assay: Inhibition of PI3Kdelta Efficacy Assay
T1 sequence (O00329 whole entry): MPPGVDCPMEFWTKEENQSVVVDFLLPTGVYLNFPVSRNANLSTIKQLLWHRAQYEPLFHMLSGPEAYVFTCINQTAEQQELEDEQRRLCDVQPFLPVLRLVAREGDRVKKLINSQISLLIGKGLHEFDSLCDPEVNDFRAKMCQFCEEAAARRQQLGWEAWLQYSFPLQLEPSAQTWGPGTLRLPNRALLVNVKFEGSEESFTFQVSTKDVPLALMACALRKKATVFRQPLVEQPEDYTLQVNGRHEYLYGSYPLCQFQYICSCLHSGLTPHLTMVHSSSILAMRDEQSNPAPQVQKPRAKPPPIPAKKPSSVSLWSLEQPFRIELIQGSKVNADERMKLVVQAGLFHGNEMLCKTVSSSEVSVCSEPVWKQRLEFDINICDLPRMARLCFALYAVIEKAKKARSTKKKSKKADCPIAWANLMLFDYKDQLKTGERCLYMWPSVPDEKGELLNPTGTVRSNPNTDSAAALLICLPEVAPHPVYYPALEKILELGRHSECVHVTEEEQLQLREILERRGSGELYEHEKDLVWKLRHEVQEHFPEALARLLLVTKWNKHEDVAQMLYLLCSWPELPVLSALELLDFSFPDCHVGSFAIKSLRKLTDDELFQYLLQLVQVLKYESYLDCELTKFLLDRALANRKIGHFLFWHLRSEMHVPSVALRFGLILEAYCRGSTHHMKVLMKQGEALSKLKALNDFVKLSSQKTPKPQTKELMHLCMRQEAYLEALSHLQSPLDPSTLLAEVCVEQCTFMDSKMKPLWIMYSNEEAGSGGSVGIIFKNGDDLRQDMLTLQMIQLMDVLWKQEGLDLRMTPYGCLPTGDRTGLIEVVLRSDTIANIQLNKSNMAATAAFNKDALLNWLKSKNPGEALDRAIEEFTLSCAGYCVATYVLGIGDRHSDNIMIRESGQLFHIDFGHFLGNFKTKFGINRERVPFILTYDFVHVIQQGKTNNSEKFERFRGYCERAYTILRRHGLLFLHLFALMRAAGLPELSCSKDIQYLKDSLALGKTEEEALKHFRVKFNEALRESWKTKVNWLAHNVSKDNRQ
Procedure: as §1, with “PI3Kδ” for “PI3Kα”, “(200×)” for “(200′).”, “2.5×PI3Kδ” for “2.5×PI3Kα”, “minutes. Finally,” for “minutes.Finally,”, “IC50” for “IC5”

Phosphatidylinositol 4,5-bisphosphate 3-kinase catalytic subunit alpha isoform, sequence (P42336 whole entry, canonical isoform): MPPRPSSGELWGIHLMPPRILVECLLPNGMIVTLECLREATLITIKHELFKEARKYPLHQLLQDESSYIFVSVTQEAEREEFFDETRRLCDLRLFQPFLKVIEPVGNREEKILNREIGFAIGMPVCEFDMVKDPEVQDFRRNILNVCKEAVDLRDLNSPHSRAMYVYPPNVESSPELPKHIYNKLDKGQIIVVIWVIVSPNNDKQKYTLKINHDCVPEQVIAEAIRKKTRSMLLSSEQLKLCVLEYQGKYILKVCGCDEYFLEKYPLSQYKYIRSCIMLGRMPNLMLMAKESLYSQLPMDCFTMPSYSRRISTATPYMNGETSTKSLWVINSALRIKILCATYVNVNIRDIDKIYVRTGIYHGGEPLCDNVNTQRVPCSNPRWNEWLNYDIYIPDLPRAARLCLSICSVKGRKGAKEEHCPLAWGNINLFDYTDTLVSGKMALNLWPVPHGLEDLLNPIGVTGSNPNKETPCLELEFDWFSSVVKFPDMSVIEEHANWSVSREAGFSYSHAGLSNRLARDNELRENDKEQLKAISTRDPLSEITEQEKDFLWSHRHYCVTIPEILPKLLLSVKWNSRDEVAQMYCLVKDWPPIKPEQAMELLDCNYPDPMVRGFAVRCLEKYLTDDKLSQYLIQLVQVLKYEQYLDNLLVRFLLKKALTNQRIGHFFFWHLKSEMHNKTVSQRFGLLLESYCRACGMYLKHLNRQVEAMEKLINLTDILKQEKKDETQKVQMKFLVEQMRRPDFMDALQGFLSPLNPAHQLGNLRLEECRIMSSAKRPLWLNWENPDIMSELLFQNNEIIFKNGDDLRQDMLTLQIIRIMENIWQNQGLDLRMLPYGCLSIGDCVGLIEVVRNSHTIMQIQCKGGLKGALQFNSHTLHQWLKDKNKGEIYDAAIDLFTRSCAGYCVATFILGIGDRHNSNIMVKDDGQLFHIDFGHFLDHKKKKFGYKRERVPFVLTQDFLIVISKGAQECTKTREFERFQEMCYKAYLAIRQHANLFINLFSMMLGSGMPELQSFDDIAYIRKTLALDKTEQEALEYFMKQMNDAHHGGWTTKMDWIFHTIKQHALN

Compound | IC50 [1] [nM] | IC50 [2] [nM] | IC50 [3] [nM]
COc1ncc(-c2ccc3ncnc(N4CCN(C(=O)/C=C/C(C)=O)C[C@@H]4C)c3c2)cc1NS(=O)(=O)c1ccc(F)cc1F [US20250145589, Example 8] | 0.34 | 222 | 17.9
COc1ncc(-c2ccc3ncnc(N4CCC5(CN(C(=O)/C=C/C(C)=O)C5)C4)c3c2)cc1NS(=O)(=O)c1ccc(F)cc1F [US20250145589, Example 13] | 11.3 | 96.7 | 85.3
C=C(F)C(=O)N1CCN(c2ncnc3ccc(-c4cnc(OC)c(N(C)S(=O)(=O)c5ccc(F)cc5F)c4)cc23)CC1 [US20250145589, Example 79] |  |  | 903
C=CS(=O)(=O)N1CCN(c2ncnc3ccc(-c4cnc(OC)c(NS(=O)(=O)c5ccc(F)cc5F)c4)cc23)CC1 [US20250145589, Example 207] | 3.2 |  | 
COc1ncc(-c2ccc3ncnc(N4CCN(C(=O)/C=C/C(C)=O)CC4)c3n2)cc1NS(=O)(=O)c1cnccc1C [US20250145589, Example 223] | 1.4 | 210 | 
COc1ncc(-c2ccc3ncnc(N4CCN(C(=O)/C=C/C(C)=O)CC4)c3c2)cc1SS(=O)(=O)c1ccc(F)cc1F [US20250145589, Example 246] | 2.24 | 159 | 13.8
